In US20240109917A1 (ACTELION PHARMACEUTICALS LTD, priority 2020, published 2024):

Assays:
[1] = target: VEGFR2, unphosphorylated (Homo sapiens (Human), UniProt P35968); experiment: VEGFR ADP GLO Assay; type: biochemical
[2] = target: His6-TEV-PDGFRβ (557-1016) (Homo sapiens (Human), UniProt P09619); experiment: PDGFRβ HTRF Assay; type: biochemical; details: read-out: PDGFR HTRF IC50
Outline: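 Human PDGFRβ (557-1016) pre-incubated with compound for 30 min at RT in pH 7.5 HEPES/MgCl2/EGTA/Brij-35/DTT buffer. Reaction started with ATP and TK-biotin peptide, run 3 h at RT, then quenched with EDTA-containing Eu-cryptate antibody/streptavidin-XL665. HTRF 665/620 nm ratio read after 60 min; percent inhibition relative to DMSO and 10 μM imatinib controls.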

[3] = target: Tb-labeled inactive PDGFRβ (Homo sapiens (Human), UniProt P09619); experiment: PDGFRβ LanthaScreen Assay; type: binding; details: read-out: PDGFR Lantha IC50
Tb-labeled inactive PDGFRβ, sequence (P09619 33-1106): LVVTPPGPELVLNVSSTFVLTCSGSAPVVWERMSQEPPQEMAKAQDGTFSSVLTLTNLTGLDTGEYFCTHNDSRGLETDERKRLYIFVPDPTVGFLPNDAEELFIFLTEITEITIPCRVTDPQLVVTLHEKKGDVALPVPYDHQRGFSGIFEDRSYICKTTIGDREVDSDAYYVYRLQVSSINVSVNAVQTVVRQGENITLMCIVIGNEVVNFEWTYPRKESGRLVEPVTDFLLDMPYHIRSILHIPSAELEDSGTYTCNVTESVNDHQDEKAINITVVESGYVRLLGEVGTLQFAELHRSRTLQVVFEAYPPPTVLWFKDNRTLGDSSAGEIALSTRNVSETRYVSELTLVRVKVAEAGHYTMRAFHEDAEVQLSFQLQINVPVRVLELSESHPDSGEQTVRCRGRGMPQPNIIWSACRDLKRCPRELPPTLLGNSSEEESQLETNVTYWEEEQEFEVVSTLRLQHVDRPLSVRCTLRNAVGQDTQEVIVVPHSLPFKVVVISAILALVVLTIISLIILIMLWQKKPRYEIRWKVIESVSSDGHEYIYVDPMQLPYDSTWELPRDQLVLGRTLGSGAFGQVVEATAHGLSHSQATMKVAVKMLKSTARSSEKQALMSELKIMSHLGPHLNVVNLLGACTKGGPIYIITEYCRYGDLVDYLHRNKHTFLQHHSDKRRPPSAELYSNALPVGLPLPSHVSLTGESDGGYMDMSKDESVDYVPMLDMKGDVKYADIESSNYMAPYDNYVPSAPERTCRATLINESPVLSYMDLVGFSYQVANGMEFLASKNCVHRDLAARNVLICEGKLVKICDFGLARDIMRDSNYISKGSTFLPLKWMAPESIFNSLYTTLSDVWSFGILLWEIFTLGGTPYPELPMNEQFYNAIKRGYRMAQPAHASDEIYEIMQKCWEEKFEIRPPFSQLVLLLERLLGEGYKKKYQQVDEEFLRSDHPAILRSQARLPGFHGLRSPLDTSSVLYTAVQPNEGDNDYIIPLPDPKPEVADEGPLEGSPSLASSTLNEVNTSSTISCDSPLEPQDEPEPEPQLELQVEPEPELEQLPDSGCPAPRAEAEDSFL

VEGFR2, unphosphorylated, sequence (P35968 20-1356): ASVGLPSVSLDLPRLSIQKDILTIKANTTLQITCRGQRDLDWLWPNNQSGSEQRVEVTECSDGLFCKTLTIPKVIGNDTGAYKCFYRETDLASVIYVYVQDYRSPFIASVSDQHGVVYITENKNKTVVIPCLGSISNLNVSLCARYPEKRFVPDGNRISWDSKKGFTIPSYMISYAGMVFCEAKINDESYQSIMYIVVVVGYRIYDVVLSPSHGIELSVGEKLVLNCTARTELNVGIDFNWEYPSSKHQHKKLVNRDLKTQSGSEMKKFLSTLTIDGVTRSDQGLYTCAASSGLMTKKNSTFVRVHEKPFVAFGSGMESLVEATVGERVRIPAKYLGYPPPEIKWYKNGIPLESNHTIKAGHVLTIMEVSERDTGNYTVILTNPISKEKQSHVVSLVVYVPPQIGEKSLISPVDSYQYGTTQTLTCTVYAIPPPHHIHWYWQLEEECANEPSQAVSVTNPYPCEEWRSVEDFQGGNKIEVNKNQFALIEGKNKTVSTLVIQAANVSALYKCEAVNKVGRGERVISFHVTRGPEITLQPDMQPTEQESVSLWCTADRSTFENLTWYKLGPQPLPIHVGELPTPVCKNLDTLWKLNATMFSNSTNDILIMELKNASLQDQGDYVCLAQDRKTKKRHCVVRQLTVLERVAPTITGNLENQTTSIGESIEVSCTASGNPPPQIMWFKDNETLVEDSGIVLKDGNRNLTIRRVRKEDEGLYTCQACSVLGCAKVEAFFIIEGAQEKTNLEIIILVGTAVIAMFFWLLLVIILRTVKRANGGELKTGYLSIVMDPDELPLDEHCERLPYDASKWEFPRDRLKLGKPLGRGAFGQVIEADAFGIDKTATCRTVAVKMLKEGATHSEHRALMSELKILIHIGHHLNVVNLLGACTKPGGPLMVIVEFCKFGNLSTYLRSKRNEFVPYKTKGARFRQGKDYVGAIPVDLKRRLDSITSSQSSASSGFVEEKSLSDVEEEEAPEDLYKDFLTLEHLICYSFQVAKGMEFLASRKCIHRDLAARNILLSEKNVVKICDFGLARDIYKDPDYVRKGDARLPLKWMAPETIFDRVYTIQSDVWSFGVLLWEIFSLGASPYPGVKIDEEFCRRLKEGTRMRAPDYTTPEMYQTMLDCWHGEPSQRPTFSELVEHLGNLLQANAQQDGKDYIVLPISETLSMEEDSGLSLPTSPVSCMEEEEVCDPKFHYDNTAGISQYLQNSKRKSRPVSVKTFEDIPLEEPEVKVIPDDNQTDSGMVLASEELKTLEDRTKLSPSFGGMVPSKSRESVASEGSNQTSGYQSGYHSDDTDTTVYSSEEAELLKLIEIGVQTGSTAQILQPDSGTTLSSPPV
His6-TEV-PDGFRβ (557-1016), sequence (P09619 557-1016): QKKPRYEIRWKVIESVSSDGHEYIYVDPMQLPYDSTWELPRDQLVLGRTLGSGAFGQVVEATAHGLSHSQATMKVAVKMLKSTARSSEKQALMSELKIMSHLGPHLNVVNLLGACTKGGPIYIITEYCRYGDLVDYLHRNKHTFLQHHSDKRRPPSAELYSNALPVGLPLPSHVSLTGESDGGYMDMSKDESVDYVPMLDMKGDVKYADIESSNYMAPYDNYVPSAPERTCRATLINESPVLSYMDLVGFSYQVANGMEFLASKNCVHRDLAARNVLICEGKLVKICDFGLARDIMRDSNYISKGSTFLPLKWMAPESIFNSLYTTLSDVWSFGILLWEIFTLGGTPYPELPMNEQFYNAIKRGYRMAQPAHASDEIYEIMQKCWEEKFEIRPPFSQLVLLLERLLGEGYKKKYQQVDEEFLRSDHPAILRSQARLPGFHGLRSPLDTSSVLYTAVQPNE

Row | Structure (SMILES) | IC50 [1] [nM] | IC50 [2] [nM] | IC50 [3] [nM]
1 | Cc1cc(C(=O)NCCN(C)C2CCCC2)sc1NC(=O)c1cnn2cc(-c3cnn(C)c3)sc12 [Example 190, N-(5-((2-(cyclopentyl(methyl)amino)ethyl)carbamoyl)-3-methylthiophen-2-yl)-2-(1-methyl-1H-pyrazol-4-yl)pyrazolo[5,1-b]thiazole-7-carboxamide] | > 7500 | 6 | 398
2 | Cc1cc(C(=O)NCCN2CCOCC23CC3)sc1NC(=O)c1cnn2cc(-c3cnn(C)c3)sc12 [Example 197, N-(5-((2-(7-oxa-4-azaspiro[2.5]octan-4-yl)ethyl)carbamoyl)-3-methylthiophen-2-yl)-2-(1-methyl-1H-pyrazol-4-yl)pyrazolo[5,1-b]thiazole-7-carboxamide] | > 7500 | 11.5 | 51
3 | Cn1cc(-c2cn3ncc(C(=O)Nc4cc(C(=O)NCCN5CCCC5(C)C)ccc4F)c3s2)cn1 [Example 207, N-(5-((2-(2,2-dimethylpyrrolidin-1-yl)ethyl)carbamoyl)-2-fluorophenyl)-2-(1-methyl-1H-pyrazol-4-yl)pyrazolo[5,1-b]thiazole-7-carboxamide] | > 7500 | 0.3 | 4.4
4 | Cc1ncc(NC(=O)OCCN2CCCC2(C)C)cc1NC(=O)c1cnn2cc(-c3cnn(C)c3)sc12 [Example 247, 2-(2,2-dimethylpyrrolidin-1-yl)ethyl (6-methyl-5-(2-(1-methyl-1H-pyrazol-4-yl)pyrazolo[5,1-b]thiazole-7-carboxamido)pyridin-3-yl)carbamate] | > 7500 | 0.6 | 19.3
5 | Cc1ncc(C(=O)NCCN2CCCC2(C)C)cc1NC(=O)c1cnn2cc(-c3cccc4c3cnn4C)sc12 [Example 240, N-(5-((2-(2,2-dimethylpyrrolidin-1-yl)ethyl)carbamoyl)-2-methylpyridin-3-yl)-2-(1-methyl-1H-indazol-4-yl)pyrazolo[5,1-b]thiazole-7-carboxamide] | > 2500 | 0.3 | 2
6 | Cc1ncc(NC(=O)CN2CCN(C)CC2)cc1NC(=O)c1cnn2cc(-c3cnn(C)c3)sc12 [Example 232, 2-(1-methyl-1H-pyrazol-4-yl)-N-(2-methyl-5-(2-(4-methylpiperazin-1-yl)acetamido)pyridin-3-yl)pyrazolo[5,1-b]thiazole-7-carboxamide] | > 7500 | 25.9 | 751
7 | Cc1ncc(NC(=O)OCC(C)N2CCCC2)cc1NC(=O)c1cnn2cc(-c3cnn(C)c3)sc12 (stereo not drawn) [Example 248, 2-(pyrrolidin-1-yl)propyl (6-methyl-5-(2-(1-methyl-1H-pyrazol-4-yl)pyrazolo[5,1-b]thiazole-7-carboxamido)pyridin-3-yl)carbamate] | > 7500 | 0.4 | 10.2
8 | Cc1ncc(C(=O)NCCN(CCO)CC2CCCCC2)cc1NC(=O)c1cnn2cc(-c3cnn(C)c3)sc12 [Example 235, N-(5-((2-((cyclohexylmethyl)(2-hydroxyethyl)amino)ethyl)carbamoyl)-2-methylpyridin-3-yl)-2-(1-methyl-1H-pyrazol-4-yl)pyrazolo[5,1-b]thiazole-7-carboxamide] | > 7500 | 0.5 | 5.2
9 | COc1ncccc1-c1cn2ncc(C(=O)Nc3cc(C(=O)NCCN4CCCC4C)cnc3C)c2s1 (stereo not drawn) [Example 228, 2-(2-Methoxypyridin-3-yl)-N-(2-methyl-5-((2-(2-methylpyrrolidin-1-yl)ethyl)carbamoyl)pyridin-3-yl)pyrazolo[5,1-b]thiazole-7-carboxamide] | > 833 | 0.2 | 1.5
10 | Cc1ncc(NC(=O)OC[C@H]2CCCN2C)cc1NC(=O)c1cnn2cc(-c3cnn(C)c3)sc12 [Example 244, (R)-(1-methylpyrrolidin-2-yl)methyl (6-methyl-5-(2-(1-methyl-1H-pyrazol-4-yl)pyrazolo[5,1-b]thiazole-7-carboxamido)pyridin-3-yl)carbamate] | > 7500 | 0.5 | 15.3
11 | Cc1ncc(C(=O)NCCN2CCCC2)cc1NC(=O)c1cnn2cc(-c3cnn(C)c3)sc12 [Example 219, 2-(1-Methyl-1H-pyrazol-4-yl)-N-(2-methyl-5-((2-(pyrrolidin-1-yl)ethyl)carbamoyl)pyridin-3-yl)pyrazolo[5,1-b]thiazole-7-carboxamide] | > 7500 | 0.4 | 14
12 | Cc1ncc(NC(=O)CN2CCC3(COC3)C2)cc1NC(=O)c1cnn2cc(-c3cnn(C)c3)sc12 [Example 18, N-(5-(2-(2-oxa-6-azaspiro[3.4]octan-6-yl)acetamido)-2-methylpyridin-3-yl)-2-(1-methyl-1H-pyrazol-4-yl)pyrazolo[5,1-b]thiazole-7-carboxamide] | > 7500 | 0.6 | 9.5
13 | Cc1cc(C(=O)NCCN2CCC(O)CC2)sc1NC(=O)c1cnn2cc(-c3cnn(C)c3)sc12 [Example 191, N-(5-((2-(4-hydroxypiperidin-1-yl)ethyl)carbamoyl)-3-methylthiophen-2-yl)-2-(1-methyl-1H-pyrazol-4-yl)pyrazolo[5,1-b]thiazole-7-carboxamide] | > 7500 | 248 | > 3000
14 | Cc1ncc(C(=O)NCCN2CCCC2(C)C)cc1NC(=O)c1cnn2cc(-c3cn(C)nc3CO)sc12 [Example 224, N-(5-((2-(2,2-dimethylpyrrolidin-1-yl)ethyl)carbamoyl)-2-methylpyridin-3-yl)-2-(3-(hydroxymethyl)-1-methyl-1H-pyrazol-4-yl)pyrazolo[5,1-b]thiazole-7-carboxamide] | > 2500 | 1.4 | 11.2
15 | COc1ncccc1-c1cn2ncc(C(=O)Nc3cc(NC(=O)OC[C@@H]4CCCN4C)cnc3C)c2s1 [Example 253, (S)-(1-methylpyrrolidin-2-yl)methyl (5-(2-(2-methoxypyridin-3-yl)pyrazolo[5,1-b]thiazole-7-carboxamido)-6-methylpyridin-3-yl)carbamate] | > 7500 | 0.2 | 1.8
